Drawing on US20250186408A1, “TREATMENT OF PHARMACORESISTANT EPILEPSY” (Katholieke Universiteit Leuven, priority 2021, published 2025), this text covers IC50, Emax and EC50 for 2 compounds.

Where two headings read alike, the source gives them in different places.

One test addresses T1, CHRM1 (Homo sapiens, UniProt P11229).
T1 sequence (P11229 1-460): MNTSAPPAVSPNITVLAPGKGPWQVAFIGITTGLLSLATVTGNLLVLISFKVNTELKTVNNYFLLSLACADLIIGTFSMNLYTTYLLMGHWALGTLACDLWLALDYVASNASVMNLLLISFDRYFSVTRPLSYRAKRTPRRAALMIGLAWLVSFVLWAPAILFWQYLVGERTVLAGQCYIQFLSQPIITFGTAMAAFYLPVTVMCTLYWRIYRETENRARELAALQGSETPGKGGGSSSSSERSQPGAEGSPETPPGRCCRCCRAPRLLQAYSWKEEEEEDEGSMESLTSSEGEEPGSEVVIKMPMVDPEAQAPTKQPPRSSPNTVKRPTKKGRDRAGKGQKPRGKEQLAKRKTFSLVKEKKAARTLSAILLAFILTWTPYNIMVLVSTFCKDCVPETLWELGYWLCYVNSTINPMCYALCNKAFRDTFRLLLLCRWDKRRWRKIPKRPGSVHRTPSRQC
The test can be described thus: Calcium Flux CHRM1 Antagonist. The settings on record: for Emax: read-out: Max response. Background: A change in cytosolic calcium serves as a functional read-out for many receptors and channels.

For a further test, the target named is T2, EDNRA (Homo sapiens, UniProt P25101).
T2 sequence (P25101 21-427): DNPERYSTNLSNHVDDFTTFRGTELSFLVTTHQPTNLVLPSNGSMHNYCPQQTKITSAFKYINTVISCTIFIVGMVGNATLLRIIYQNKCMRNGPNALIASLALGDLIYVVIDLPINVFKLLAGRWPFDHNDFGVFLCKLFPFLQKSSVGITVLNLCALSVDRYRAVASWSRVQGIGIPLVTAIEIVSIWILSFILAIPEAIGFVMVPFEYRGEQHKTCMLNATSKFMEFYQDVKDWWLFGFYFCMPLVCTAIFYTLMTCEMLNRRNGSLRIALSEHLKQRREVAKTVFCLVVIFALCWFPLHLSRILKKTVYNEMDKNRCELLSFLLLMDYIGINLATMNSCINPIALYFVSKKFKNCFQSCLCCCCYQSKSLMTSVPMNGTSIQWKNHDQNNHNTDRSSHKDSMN
Kind of test: Calcium Flux EDNRA Antagonist. It is filed as cell-based. The conditions noted are these: for IC50: read-out: RC50, result type IC50; for Emax: read-out: Max response. As to the method:
(≤0.2% DMSO concentration). Assays were performed in 1× dye loading buffer consisting of 1× Dye (DiscoverX, Calcium No Wash^PLUS kit, Catalog No. 90-0091), 1× Additive A and 2.5 mM Probenecid in HBSS/20 mM HEPES. Probenecid was prepared fresh. Prior to testing, media was aspirated from cells and replaced with 25 μL dye loading buffer. Cells were incubated for 45 min at 37° C. and then 20 min at RT. For agonist determination, 25 μL of 2× compound in HBSS/20 mM HEPES was added using a FLIPR Tetra (MDS). […] 25 μL of 2× sample was added and cells were incubated for 30 min at RT in the dark to equilibrate plate temperature. After incubation, antagonist determination was initiated by addition of 25 μL of 1× compound with 3×EC80 agonist using FLIPR. For both agonist and antagonist formats, activity was measure on a FLIPR Tetra (MDS). Calcium mobilization was monitored for 2 min with a 5 sec baseline read.
FLIPR read—Area under the curve, was calculated for the entire 2 min read.

A further test concerns the target T3, HTR1A (Homo sapiens, UniProt P08908).
T3 sequence (P08908 1-422): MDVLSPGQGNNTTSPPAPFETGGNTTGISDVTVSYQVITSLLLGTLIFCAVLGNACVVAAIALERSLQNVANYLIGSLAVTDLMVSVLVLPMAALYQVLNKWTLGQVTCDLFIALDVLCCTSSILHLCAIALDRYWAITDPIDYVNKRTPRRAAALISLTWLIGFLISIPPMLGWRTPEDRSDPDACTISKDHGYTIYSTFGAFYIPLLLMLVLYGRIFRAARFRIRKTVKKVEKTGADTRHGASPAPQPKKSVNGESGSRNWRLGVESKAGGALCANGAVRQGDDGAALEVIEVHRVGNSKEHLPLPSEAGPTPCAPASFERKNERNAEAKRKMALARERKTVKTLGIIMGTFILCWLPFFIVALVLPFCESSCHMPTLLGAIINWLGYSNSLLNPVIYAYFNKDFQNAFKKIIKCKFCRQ
Kind of test: cAMP HTR1A Agonist. The settings on record: for Emax: read-out: Max response.

In another test the target is T4, HTR3A (Homo sapiens, UniProt P46098).
T4 sequence (P46098 24-478): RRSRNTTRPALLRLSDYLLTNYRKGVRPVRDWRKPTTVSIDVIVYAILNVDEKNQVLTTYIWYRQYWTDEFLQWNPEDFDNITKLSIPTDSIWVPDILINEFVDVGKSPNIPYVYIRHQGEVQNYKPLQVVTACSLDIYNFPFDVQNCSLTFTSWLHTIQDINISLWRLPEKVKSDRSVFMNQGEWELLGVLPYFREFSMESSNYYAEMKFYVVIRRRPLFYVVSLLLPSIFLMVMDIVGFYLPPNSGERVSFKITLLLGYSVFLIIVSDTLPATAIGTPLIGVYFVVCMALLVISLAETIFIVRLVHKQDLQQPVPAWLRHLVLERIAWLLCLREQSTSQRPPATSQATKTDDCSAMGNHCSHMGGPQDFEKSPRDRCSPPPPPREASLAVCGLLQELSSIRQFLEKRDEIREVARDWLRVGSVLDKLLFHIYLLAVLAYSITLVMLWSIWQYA
Kind of test: Ion Channel HTR3A Blocker. The conditions noted are these: for Emax: Ion Channel HTR3A Blocker, read-out: Max response. The class given is cell-based.

The next test addresses HTR1B (Homo sapiens, UniProt P28222). Kind of test: cAMP HTR1B Agonist. The settings on record: for Emax: read-out: Max response.
The next test concerns the target CNR2 (Homo sapiens, UniProt P34972). Kind of test: cAMP CNR2 Antagonist. The settings on record: for Emax: read-out: Max response.
For another test, the target named is T5, DAT (Homo sapiens, UniProt Q01959).
T5 construct: Eurofins DiscoverX Corporation 87-1003DR; host or cells: unnamed cell lines
T5 sequence (Q01959 whole entry): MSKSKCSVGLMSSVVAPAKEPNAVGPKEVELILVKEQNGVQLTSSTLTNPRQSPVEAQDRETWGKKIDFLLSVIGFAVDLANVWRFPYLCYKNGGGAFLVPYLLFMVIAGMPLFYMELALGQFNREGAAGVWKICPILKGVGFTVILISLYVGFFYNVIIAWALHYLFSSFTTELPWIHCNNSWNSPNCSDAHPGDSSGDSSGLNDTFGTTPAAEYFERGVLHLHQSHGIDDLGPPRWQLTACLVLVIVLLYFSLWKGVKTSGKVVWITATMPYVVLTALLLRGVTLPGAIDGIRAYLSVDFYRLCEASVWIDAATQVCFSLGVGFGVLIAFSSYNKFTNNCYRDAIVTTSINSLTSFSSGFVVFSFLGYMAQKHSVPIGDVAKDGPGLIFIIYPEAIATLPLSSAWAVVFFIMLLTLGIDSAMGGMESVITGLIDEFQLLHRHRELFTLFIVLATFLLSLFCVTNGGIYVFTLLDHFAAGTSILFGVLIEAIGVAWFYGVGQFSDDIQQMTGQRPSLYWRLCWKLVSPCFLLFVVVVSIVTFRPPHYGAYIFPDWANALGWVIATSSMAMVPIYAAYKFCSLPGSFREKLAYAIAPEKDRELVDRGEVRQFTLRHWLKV
Kind of test: Transporter DAT Blocker. It is filed as cell-based. The settings on record: for Emax: Transporter DAT Blocker, read-out: Max response. As to the method: After cell plating and incubation, media was removed an 25 μL of 1× compound in 1×HBSS/0.1% BSA was added. Compounds were incubated with cells for 30 min at 37° C. After compound incubation, 25 μL of 1× dye loading buffer (1× dye, 1×HBSS/20 mM HEPES) was added to the wells. Cells were incubated for 30-60 min at 37° C. After incubation, microplates were transferred to a PerkinElmer Envision™ instrument for fluorescent signal detection. […] For blocker mode assays, percentage of inhibition was calculated using the following formula: […]

The target of another test is nAChR (a4/b2) (Homo sapiens, UniProt P17787+P43681). The test can be described thus: Ion Channel nAChR (a4/b2) Blocker. The class given is cell-based. The conditions noted are these: for Emax: Ion Channel nAChR (a4/b2) Blocker, read-out: Max response.
nAChR (a4/b2), sequence (P43681 29-627 limits assumed): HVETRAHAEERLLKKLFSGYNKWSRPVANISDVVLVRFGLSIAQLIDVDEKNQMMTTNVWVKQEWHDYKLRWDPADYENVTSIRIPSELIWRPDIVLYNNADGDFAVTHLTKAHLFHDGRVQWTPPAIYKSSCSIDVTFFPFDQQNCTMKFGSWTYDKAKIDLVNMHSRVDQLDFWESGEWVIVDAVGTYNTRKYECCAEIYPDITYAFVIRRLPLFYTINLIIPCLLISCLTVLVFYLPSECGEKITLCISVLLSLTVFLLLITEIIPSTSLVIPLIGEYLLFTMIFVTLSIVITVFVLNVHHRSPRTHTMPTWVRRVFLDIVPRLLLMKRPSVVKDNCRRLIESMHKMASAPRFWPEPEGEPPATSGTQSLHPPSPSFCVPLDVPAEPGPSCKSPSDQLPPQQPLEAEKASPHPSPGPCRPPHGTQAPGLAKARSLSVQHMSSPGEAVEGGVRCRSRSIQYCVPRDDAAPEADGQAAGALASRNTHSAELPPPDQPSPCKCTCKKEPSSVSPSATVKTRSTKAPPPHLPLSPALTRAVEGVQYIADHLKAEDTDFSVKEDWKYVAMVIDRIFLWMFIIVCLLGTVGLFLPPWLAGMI
nAChR (a4/b2), sequence (P17787 26-502): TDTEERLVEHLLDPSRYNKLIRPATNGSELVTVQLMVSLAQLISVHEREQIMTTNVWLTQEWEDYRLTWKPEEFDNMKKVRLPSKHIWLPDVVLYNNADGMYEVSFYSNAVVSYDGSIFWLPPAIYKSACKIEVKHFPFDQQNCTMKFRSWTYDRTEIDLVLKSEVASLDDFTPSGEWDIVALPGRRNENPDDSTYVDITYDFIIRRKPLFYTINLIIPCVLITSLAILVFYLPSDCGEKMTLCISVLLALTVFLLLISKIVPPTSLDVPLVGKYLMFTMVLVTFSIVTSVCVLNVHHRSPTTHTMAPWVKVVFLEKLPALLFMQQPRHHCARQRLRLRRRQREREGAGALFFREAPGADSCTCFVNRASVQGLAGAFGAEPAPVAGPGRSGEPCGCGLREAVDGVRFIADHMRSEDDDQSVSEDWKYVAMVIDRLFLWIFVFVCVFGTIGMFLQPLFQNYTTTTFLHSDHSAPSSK

CNR2, sequence (P34972 whole entry): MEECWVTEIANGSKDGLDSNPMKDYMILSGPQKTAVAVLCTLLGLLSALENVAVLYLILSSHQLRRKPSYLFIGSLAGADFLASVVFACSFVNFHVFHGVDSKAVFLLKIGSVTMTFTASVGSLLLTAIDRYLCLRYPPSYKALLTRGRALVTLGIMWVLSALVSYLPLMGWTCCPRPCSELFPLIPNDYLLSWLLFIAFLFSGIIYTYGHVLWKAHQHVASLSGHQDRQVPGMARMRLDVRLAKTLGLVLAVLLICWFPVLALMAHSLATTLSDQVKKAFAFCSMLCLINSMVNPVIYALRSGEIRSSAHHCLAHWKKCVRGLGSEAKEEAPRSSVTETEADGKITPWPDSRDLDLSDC
HTR1B, sequence (P28222 whole entry): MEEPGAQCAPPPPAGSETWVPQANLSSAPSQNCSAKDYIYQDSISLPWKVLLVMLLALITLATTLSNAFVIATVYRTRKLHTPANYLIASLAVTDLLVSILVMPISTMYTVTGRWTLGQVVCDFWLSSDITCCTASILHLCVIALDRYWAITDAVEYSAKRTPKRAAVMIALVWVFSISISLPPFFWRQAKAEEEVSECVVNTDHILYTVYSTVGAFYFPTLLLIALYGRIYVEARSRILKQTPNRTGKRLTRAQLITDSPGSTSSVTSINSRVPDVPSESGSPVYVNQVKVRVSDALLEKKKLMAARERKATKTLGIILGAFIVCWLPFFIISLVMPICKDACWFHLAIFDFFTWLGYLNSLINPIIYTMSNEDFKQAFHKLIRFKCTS
Procedure for CHRM1: In vitro pharmacological profiling of compounds was done against 78 functional assays for 47 common off-targets (30) by Eurofins DiscoverX Corporation (Fremont, CA, USA) using their SAFETYscan E/IC50 ELECT service (Cat Ref 87-1003DR, Safety47 Panel Dose Response). […] Compounds were tested in a range of 10 concentrations, following a 3-fold serial dilution, starting from 10 μM. The assays were performed utilizing the PathHunter enzyme fragment complementation (EFC) technology, FLIPR®-based cellular screening assays, and KINOMEscan kinase binding assays.
Prior to testing, cells (10,000 cells/well) were expanded from freezer stocks and seeded into a total volume of 50 μL into black walled, clear-bottom, Poly-D-lysine coated 384-well microplates and incubated at 37° C. […] Assays were performed in 1× dye loading buffer consisting of 1× Dye (DiscoverX, Calcium No Wash^PLUS kit, Catalog No. 90-0091), 1× Additive A and 2.5 mM Probenecid in HBSS/20 mM HEPES. Probenecid was prepared fresh. Prior to testing, media was aspirated from cells and replaced with 25 μL dye loading buffer. Cells were incubated for 45 min at 37° C. and then 20 min at RT. For agonist determination, 25 μL of 2× compound in HBSS/20 mM HEPES was added using a FLIPR Tetra (MDS). For antagonist determination, cells were pre-incubated with sample followed by agonist challenge at the EC80 concentration. 25 μL of 2× sample was added and cells were incubated for 30 min at RT in the dark to equilibrate plate temperature. After incubation, antagonist determination was initiated by addition of 25 μL of 1× compound with 3×EC80 agonist using FLIPR. For both agonist and antagonist formats, activity was measure on a FLIPR Tetra (MDS). Calcium mobilization was monitored for 2 min with a 5 sec baseline read.
FLIPR read—Area under the curve, was calculated for the entire 2 min read. Compound activity was analysed using CBIS data analysis suite (ChemInnovation, CA).
Procedure for CNR2: (§1) In vitro pharmacological profiling of compounds was done against 78 functional assays for 47 common off-targets (30) by Eurofins DiscoverX Corporation (Fremont, CA, USA) using their SAFETYscan E/IC50 ELECT service (Cat Ref 87-1003DR, Safety47 Panel Dose Response). […] Compounds were tested in a range of 10 concentrations, following a 3-fold serial dilution, starting from 10 μM.
cAMP Hunter cell lines were expanded from freezer stocks. Prior to testing, cells were seeded in a total volume of 20 μL into white walled 384-well microplates and incubated at 37° C. cAMP modulation was determined using the DiscoverX HitHunter cAMP XS+ assay. For Gs agonist determination, cells were incubated with sample to induce response. For Gi agonist determination, cells were incubated with sample in the presence of EC80 forskolin to induce response. For both conditions, media was aspirated from cells and replaced with 15 μL 2:1 HBSS/10 mM HEPES:cAMP XS+ Ab reagent. Intermediate dilution of sample stocks was performed to generate 4× sample in assay buffer (containing 4×EC80 forskolin in the case of antagonist determination). 5 μL of 4× sample was added to cells and incubated at 37° C. or room temperature (RT) for 30 or 60 min. Final assay vehicle concentration was 1%. For antagonist determination, cells were pre-incubated with sample followed by agonist challenge at the EC80 concentration. Media was aspirated from cells and replaced with 10 μL 1:1 HBSS/HEPES:cAMP XS+ Ab reagent. 5 μL of 4× compound was added to the cells and incubated at 37° C. or RT for 30 min. 5 μL of 4×EC80 agonist was added to the cells and incubated at 37° C. or RT for 30 or 60 min. For Gi coupled GPCRs, EC80 forskolin was included. […] Microplates were read following signal generation with a PerkinElmer Envision™ instrument for chemiluminescent signal detection. Compound activity was analyzed using CBIS data analysis suite (ChemInnovation, CA). For Gs agonist mode assays, percentage activity was calculated using the following equation:
Procedure for HTR1A: as §1
(§2) cAMP Hunter cell lines were expanded from freezer stocks. Prior to testing, cells were seeded in a total volume of 20 μL into white walled 384-well microplates and incubated at 37° C. cAMP modulation was determined using the DiscoverX HitHunter cAMP XS+ assay. For Gs agonist determination, cells were incubated with sample to induce response. For Gi agonist determination, cells were incubated with sample in the presence of EC80 forskolin to induce response. For both conditions, media was aspirated from cells and replaced with 15 μL 2:1 HBSS/10 mM HEPES:cAMP XS+ Ab reagent. Intermediate dilution of sample stocks was performed to generate 4× sample in assay buffer (containing 4×EC80 forskolin in the case of antagonist determination). 5 μL of 4× sample was added to cells and incubated at 37° C. or room temperature (RT) for 30 or 60 min. Final assay vehicle concentration was 1%. For antagonist determination, cells were pre-incubated with sample followed by agonist challenge at the EC80 concentration. Media was aspirated from cells and replaced with 10 μL 1:1 HBSS/HEPES:cAMP XS+ Ab reagent. 5 μL of 4× compound was added to the cells and incubated at 37° C. or RT for 30 min. 5 μL of 4×EC80 agonist was added to the cells and incubated at 37° C. or RT for 30 or 60 min. For Gi coupled GPCRs, EC80 forskolin was included. […] Microplates were read following signal generation with a PerkinElmer Envision™ instrument for chemiluminescent signal detection. Compound activity was analyzed using CBIS data analysis suite (ChemInnovation, CA).
Procedure for HTR1B: as §1, §2

What is called IC50 is the concentration at which inhibition is half-maximal. The term EC50 denotes the concentration that produces a half-maximal response. Read a high EC50 as a less potent agent. Consider `CC(C)(C)c1ccc(C#CC(O)c2ccccc2)cc1` (racemic) [Compound 3.3, rac-3-(4-(tert-butyl)phenyl)-1-phenylprop-2-yn-1-ol], for which the IC50 on CHRM1 was more than 10 µM; at EDNRA (Calcium Flux EDNRA Antagonist), more than 10 µM; against HTR3A, more than 10 µM; against CNR2, more than 10 µM; against DAT it was more than 10 µM; against nAChR (a4/b2) it was 6.9 µM. Further, the Emax was 0% at CHRM1; 0% on EDNRA; 0% on HTR1A; 50.1% at HTR3A; 5.2% on HTR1B; 38.3% on CNR2. Moreover, the figures for the Emax on DAT and at nAChR (a4/b2) were 0% and 73.9%, respectively. Also, the 50% effective concentration (EC50) on HTR1A and on HTR1B was more than 10 µM in each case.
In the case of `Clc1cccc(C#Cc2n[nH]c3ncccc23)c1` [Compound 10.1, 3-((3-chlorophenyl)ethynyl)-1H-pyrazolo[3,4-b]pyridine], the half-inhibitory concentration (IC50) at CHRM1, at EDNRA (Calcium Flux EDNRA Antagonist), against HTR3A, against CNR2, against DAT and against nAChR (a4/b2) was more than 10 µM throughout. The Emax at CHRM1 amounted to 5.5%; on EDNRA (Calcium Flux EDNRA Antagonist), 0%; on HTR1A, 9.1%; at HTR3A, 19.7%; on HTR1B, 9.3%; at CNR2, 0%. For the same compound, the Emax came to 33.1% on DAT and 1.5% on nAChR (a4/b2). Further, the EC50 at HTR1A and on HTR1B was more than 10 µM in each case.
